Counter-ions that a name gives are not always drawn.
Key:
IL-6 = experiment: IL-1β-stimulated IL-6 production in A549 lung epithelial cells; assay type: cell-based, Human; conditions: A549 cells; Prednisolone (1 µM) = 100% inhibition control
Description: Human A549 lung epithelial cells (American Type Culture Collection, Rockville, MD) were cultured in Kaighn's F-12K medium with penicillin-streptomycin (10 U/mL) and 10% heat-inactivated fetal bovine serum (all from Invitrogen, Grand Island, NY). A549 cells were plated at a density of 30,000 cells/well in 96-well plates and incubated overnight at 37°C and with 5% CO2. The cells were serum-starved by replacing the growth medium with serum-free Kaighn's F-12K medium with penicillin-streptomycin (10 U/mL) and, again, incubating overnight at 37°C and with 5% CO2. On the third day, the medium was replaced with fresh serum-free medium and the cells were incubated with or without compound (vehicle was DMSO at 0.1 % maximum concentration) for approximately 1 hour and then stimulated with 1 ng/mL recombinant human IL-1β (R&D Systems, Minneapolis, MN) for 20 hours at 37°C and with 5% CO2. Cell supernatants were collected for determination of IL-6 levels using MSD (Meso Scale Discovery, Gaithersburg, MD) 96-well Single Spot plates as per the manufacturer's instructions. Plates were read with an MSD Sector Imager 6000. […] Percent inhibition for each compound concentration, relative to these controls, was calculated using Excel (Microsoft, Redmond, WA). IC50 values were generated using GraFit 5.0 data analysis software (Erithacus Software Ltd., Surrey, UK).

TNFα [1] = experiment: LPS-induced serum TNFα suppression, 28-day repeat dose mouse model; assay type: in vivo, Swiss Webster female mice; conditions: for TNFα Suppression (ED80 dose): oral gavage, 28 days, LPS-induced serum TNFα
Description: (§1) The compounds were weighed and suspended in a vehicle of 0.5% methylcellulose/0.025% tween 20 (Sigma-Aldrich, St. Louis, MO). Compound suspensions were homogenized using a Polytron PT-3100 tissue homogenizer to create a very fine suspension and were then sonicated for 10 minutes using a water bath sonicator. Aliquots of each suspension were made for daily dosing at 0.2 ml/dose. Swiss Webster female mice, 10-12 weeks old, 28-29 grams, (Taconic, Germantown, NY) were used in accordance with the guidelines of the Institutional Animal Care and Use Committee and in accordance with NIH guidelines on laboratory animal welfare. Mice were acclimated in the Pfizer animal facility for three to seven days prior to being utilized in a study. […] Each treatment group contained 5-10 mice. To establish a dosing regimen for the studies, a pilot pharmacodynamic time course experiment was conducted to quantify TNFα repression after a single ED80 dose.
(§2) Body weights were measured on the first and last day of each experiment. Blood samples were obtained after three weeks of dosing for a steady-state pharmacokinetic (PK) analysis. To assess compound effects on LPS-induced TNFα, all mice received an intraperitoneal injection of LPS (Salmonella typhosa, L-7895; Sigma-Aldrich, St. Louis,) 2.5 hr after the last dose on day 28. Mice were sacrificed 90 minutes after LPS administration. Serum samples were quantified for osteocalcin and TNFα using the multiplex assays (Linco Research, Inc, St. Charles, MO; Luminex 100, Austin, TX). Samples were diluted 1:20 and the assay was run according to manufacturer's instructions. The osteocalcin standard was purchased separately (Biomedical Technologies Inc., Stoughton, MA). Mice were fasted for 4 hours before serum was collected for TNFα, and osteocalcin levels. For each experiment, outliers were detected by calculating the number of standard deviations from the mean of the group. If the value being examined was more than 2.5 standard deviations from the mean, it was excluded from the rest of the calculations.
(§3) The individual mouse percent inhibition values were fit to a four-parameter logistic model using the dose mean for each group.
(§4) ED50 and ED80 values were obtained for the various endpoints using a four-parameter logistic fit. For compounds which were tested multiple times, ED50 and ED80 values were obtained using four-parameter logistic fits of the combined data from multiple experiments.

[2] = system: Mouse Collagen-induced arthritis (mCIA); experiment: Therapeutic mouse collagen-induced arthritis (mCIA) model; assay type: in vivo, Male DBA/J mice; conditions: for Therapeutic mCIA (ED80 dose): dosing day 34 through day 49
Text: Mouse Collagen-induced arthritis is a commonly used chronic, preclinical model of rheumatoid arthritis in which joint swelling and bone destruction occur following immunization with type II collagen. Reduction of disease incidence and severity has been shown previously to be predictive of disease-modification and signs and symptoms mitigation, respectively, in a clinical setting. In the therapeutic mCIA model, induction of disease incidence and severity was synchronized via LPS stimulation. Male DBA/J mice were immunized with 100 ug of bovine type II collagen (bCII) on day 0. […] Dosing of compounds was initiated in the therapeutic mode on day 34 and continued through day 49. Different treatments were compared by measuring the decrease in incidence (i.e., resolution of disease) and the decrease in severity of paw swelling over time.

TNFα [3] = experiment: LPS-stimulated TNFα production in differentiated U937 cells; assay type: cell-based, Human; conditions: for TNFα % Inhibition: U937 cells
Description: Human U937 pre-monocytic cells (American Type Culture Collection, Rockville, MD) were cultured in RPMI 1640 with glutamine (2 mM), penicillin-streptomycin (10 U/mL) and 10% heat-inactivated fetal bovine serum (all from Invitrogen, Grand Island, NY). Cells were differentiated to a monocyte/macrophage phenotype with phorbol 12-myristate 13-acetate (Sigma-Aldrich, St. Louis, MO), 20 ng/mL, overnight. The cells were then centrifuged, the medium aspirated, the cells resuspended in an equal volume of fresh RPMI 1640 medium with glutamine and penicillin-streptomycin and fetal bovine serum as listed above, and incubated for 48 hours at 37°C and with 5% CO2. Following recovery, the cells were scraped, counted, and plated in accordance to the experimental design prior to stimulation with LPS, as described below.
U937 cells were differentiated and plated at a density of 200,000 cells/well in 96-well plates. Cells were incubated with or without compound (vehicle was DMSO at 1% maximum concentration) for approximately one hour and then stimulated with 100 ng/mL lipopolysaccharide (LPS), E. coli serotype 0111:B4 (Sigma-Aldrich, St. Louis, MO) for four hours at 37°C and with 5% CO2. Cell supernatants were collected for determination of TNFα levels using an in-house sandwich-type ELISA. Mouse anti-human TNFα monoclonal antibody (clone 28401.111) and biotinylated goat anti-human TNFα (R&D Systems, Minneapolis, MN) were used as the capture and detection antibodies, respectively. Streptavidin-horseradish peroxidase (HRP) (R&D Systems, Minneapolis, MN) and K-Blue Substrate/Red Stop (Neogen, Lexington, KY) were used as the detection system. Absorbance was measured at 650 nm. TNFα concentrations were interpolated from a human TNFα recombinant protein (R&D Systems, Minneapolis, MN) standard curve using a four parameter logistics model by Magellan 4.11 data analysis software (Tecan, Durham, NC). […] Vehicle was used to define the 0% inhibition control. Percent inhibition for each concentration of compound, relative to these controls, was calculated using Excel (Microsoft, Redmond, WA). IC50 values were generated using LabStats Fit Curve V4.R7.MO data analysis software (Pfizer Sandwich Laboratories, UK and Tessella Support Services plc, Abingdon UK).

[4] = Serum osteocalcin suppression, 28-day repeat dose mouse model; conditions: in vivo, po
Description: as §1, §2, §3, §4

osteocalcin = experiment: as above; conditions: in vivo, po
Description: as §1, §2, §3, §4

[5] = Prednisolone (1 µM) = 100% inhibition control

SMILES | IL-6 % Inhibition (IL-6) [%] | TNFα Suppression (ED80 dose) (TNFα [1]) [mg/kg] | Therapeutic mCIA (ED80 dose) [2] [mg/kg] | further results
Cc1ncccc1NC(=O)c1ccc2c(c1)CC[C@@H]1C[C@@](O)(C(F)F)CC[C@@]21Cc1ccccc1 [Comparator H, (4βS,7R,8αR)-4β-benzyl-7-(difluoromethyl)-7-hydroxy-N-(2-methylpyridin-3-yl)-4α,5,6,7,8,8α,9,10-octahydrophenanthrene-2-carboxamide] | 64.9 | 0.72 |  | 
Cc1ncccc1NC(=O)c1ccc2c(c1)CC[C@@H]1C[C@@](O)(CCC(F)(F)F)CC[C@@]21Cc1ccccc1 [Comparator C, (4βS,7S,8αR)-4β-benzyl-7-hydroxy-N-(2-methylpyridin-3-yl)-7-(3,3,3-trifluoropropyl)-4β,5,6,7,8,8α,9,10-octahydrophenanthrene-2-carboxamide] | 82.6 | 1.33 | >10 | 
Cc1ccncc1NC(=O)c1ccc2c(c1)CC[C@@H]1C[C@@](O)(C(F)(F)F)CC[C@@]21Cc1ccccc1 [Comparator D, (4βS,7R,8αR)-4β-benzyl-7-hydroxy-N-(4-methylpyridin-3-yl)-7-(trifluoromethyl)-4,5,6,7,8,8α,9,10-octahydrophenanthrene-2-carboxamide] | 79.8 | >20 |  | 
Cc1ncccc1NC(=O)c1ccc2c(c1)[C@H](O)C[C@@H]1C[C@@](O)(C(F)(F)F)CC[C@@]21Cc1ccccc1 [Comparator F, (4βS,7R,8αR,10R)-4β-benzyl-7,10-dihydroxy-N-(2-methylpyridin-3-yl)-7-(trifluoromethyl)-4β,5,6,7,8,8α,9,10-octahydrophenanthrene-2-carboxamide] | 83.3 | 5.67 | >10 | 
Cc1ncccc1NC(=O)c1ccc2c(c1)C=C[C@@H]1C[C@@](O)(C(F)(F)F)CC[C@@]21Cc1ccccc1 [Comparator I, (4βS,7R,8αS)-4β-benzyl-7-hydroxy-N-(2-methylpyridin-3-yl)-7-(trifluoromethyl)-4β,5,6,7,8,8α-hexahydrophenanthrene-2-carboxamide] | 67.5 | 5.45 | >20 | 
Cc1ncccc1NC(=O)c1ccc2c(c1)CC[C@@H]1C[C@@](O)(C(F)(F)F)CC[C@@]21Cc1ccccc1 [Example 1 HCL salt, (4βS,7R,8αR)-4β-benzyl-7-hydroxy-N-(2-methylpyridin-3-yl)-7-(trifluoromethyl)-4β,5,6,7,8,8α,9,10-octahydrophenanthrene-2-carboxamide] | 76.9 |  |  | TNFα % Inhibition (TNFα [3]; [5]): 77.1%; TNFα % Inhibition (TNFα [3]; additional result (footnote a)): 62%
Cc1ncc(NC(=O)c2ccc3c(c2)CC[C@@H]2C[C@@](O)(CCC(F)(F)F)CC[C@@]32Cc2ccccc2)c(C)n1 [Comparator J, (4βS,7S,8αR)-4β-benzyl-N-(2,4-dimethylpyrimidin-5-yl)-7-hydroxy-7-(3,3,3-trifluoropropyl)-4β,5,6,7,8,8α,9,10-octahydrophenanthrene-2-carboxamide] | 55 | 0.79 | >20 | 
Cc1ncccc1CNC(=O)c1ccc2c(c1)CC[C@@H]1C[C@@](O)(CCC(F)(F)F)CC[C@@]21Cc1ccccc1 [Comparator A, (4βS,7S,8αR)-4β-benzyl-7-hydroxy-N-((2-methylpyridin-3-yl)methyl)-7-(3,3,3-trifluoropropyl)-4β,5,6,7,8,8α,9,10-octahydrophenanthrene-2-carboxamide, reference compound] | 59.9 |  |  | TNFα % Inhibition (TNFα [3]; [5]): 35%
Cc1cnc(NC(=O)c2ccc3c(c2)CC[C@@H]2C[C@@](O)(C(F)(F)F)CC[C@@]32Cc2ccccc2)c(C)n1 [Comparator B, (4βS,7R,8αR)-4β-benzyl-N-(3,5-dimethylpyrazin-2-yl)-7-hydroxy-7-(trifluoromethyl)-4α,5,6,7,8,8α,9,10-octahydrophenanthrene-2-carboxamide] | 75.8 | 2.91 | >10 | 
C[C@]12C=CC(=O)C=C1CC[C@@H]1[C@@H]2[C@@H](O)C[C@@]2(C)[C@H]1CC[C@]2(O)C(=O)CO [Prednisolone, reference compound] |  |  |  | inhibition at 1 µM (TNFα [3]; Homo sapiens, U-937, read-out: TNFα % Inhibition): 100%; ED80 ([2]; Mus musculus, read-out: Therapeutic mCIA (ED80 dose)): 5.5 mg/kg; ED80 (TNFα [1]; Mus musculus, po, 672 h, read-out: TNFα Suppression (ED80 dose)): 2.1 mg/kg; ED50 [4]: 1 mg/kg; Osteocalcin Suppression (ED80 dose) (osteocalcin): 6.80 mg/kg
Cc1ncccc1NC(=O)c1ccc2c(c1)C(=O)C[C@@H]1C[C@@](O)(C(F)(F)F)CC[C@@]21Cc1ccccc1 [Comparator E, (4βS,7R,8αS)-4β-benzyl-7-hydroxy-N-(2-methylpyridin-3-yl)-10-oxo-7-(trifluoromethyl)-4α,5,6,7,8,8α,9,10-octahydrophenanthrene-2-carboxamide] | 79.7 | 1.18 | 2.6 | 

Reference: patent EP2114888B1, “TRICYCLIC COMPOUNDS AND THEIR USE AS GLUCOCORTICOID RECEPTOR MODULATORS” (priority 2007, dated 2008)
